Drawing on patent publication US20260022142A1, “MACROCYCLIC IMMUNOMODULATORS” (Bristol-Myers Squibb Company, priority 2022, published 2026), this text covers IC50 for 5 compounds.

As a reminder, the pIC50 is the IC50 on a negative log10 scale, so that one unit is a factor of ten.

pIC50: −log10 of the molar value. Bridge positions count the residues as written; N and C are the ends. Square brackets hold non-standard residues; d marks the D form. Peptide text beside a SMILES is read from it. * marks the point of attachment. ξ: configuration not given here. Bip = N[C@@H](Cc1ccc(-c2ccccc2)cc1)C(=O)O; Phe(3-Me) = Cc1cccc(C[C@H](N)C(=O)O)c1; Cha = N[C@@H](CC1CCCCC1)C(=O)O; Cit = NC(=O)NCCC[C@H](N)C(=O)O; Thr(3ξ) = CC(O)[C@H](N)C(=O)O; Carboxymethyl = O=C(O)C*; Orn = NCCC[C@H](N)C(=O)O; Aun = NCCCCCCCCCCC(=O)O; Dab = NCC[C@H](N)C(=O)O; AEEA = NCCOCCOCC(=O)O; Piv = CC(C)(C)C(=O)*

The target in the experiment is T1, PD-1/PD-L1 interaction (PE-labeled human PD-L1-Ig binding to Jurkat cell line over-expressing human PD-1) (Homo sapiens, UniProt Q15116).
T1 construct: expressed in transfected cells; host or cells: Jurkat
T1 sequence (Q15116 25-288): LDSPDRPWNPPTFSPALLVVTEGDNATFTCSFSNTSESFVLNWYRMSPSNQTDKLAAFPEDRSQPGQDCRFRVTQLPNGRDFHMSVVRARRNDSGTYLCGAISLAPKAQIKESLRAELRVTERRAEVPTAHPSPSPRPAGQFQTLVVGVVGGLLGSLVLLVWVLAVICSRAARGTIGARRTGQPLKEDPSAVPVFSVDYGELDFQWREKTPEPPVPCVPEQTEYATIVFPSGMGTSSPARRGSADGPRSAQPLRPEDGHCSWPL
Nature of the experiment: Jurkat-PD-1 Cell Binding High-Content Screening Assay (CBA). In kind it is cell-based. The following applies: Jurkat cell line over-expressing human PD-1; PE-labeled PD-L1-Ig 20 nM final; read-out: Jurkat hPD1-PDL1 IC50. The gist of the method: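 Binding of fluorescent PD-L1-Ig (20 nM final) to Jurkat-PD-1 cells was measured by automated imaging after 1 h, following a 2 h compound pre-treatment at 37° C.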
On to `Cc1cccc(C[C@@H]2NC(=O)[C@H](CC(=O)O)NC(=O)[C@H](Cc3ccc(OCC(=O)O)cc3)NC(=O)[C@H](CC(N)=O)NC(=O)CSC[C@@H](C(=O)NCCCCCCCCCCC(=O)O)NC(=O)[C@H](CCC(=O)O)NC(=O)[C@H](C(C)C)NC(=O)[C@H](CC3CCCCC3)NC(=O)[C@H](CCN)NC(=O)[C@@H](CC(C)C)NC(=O)[C@H](CCCN)NC(=O)[C@H](Cc3ccc(O)cc3)NC(=O)[C@H](Cc3ccc(-c4ccccc4)cc3)NC(=O)[C@H](C(C)C)NC2=O)c1` [Compound 3375] ({CH2CO}-NY(Carboxymethyl)D[Phe(3-Me)]V[Bip]Y[Orn][dL][Dab][Cha]VEC[Aun]-OH; thioether N-14), for which the pIC50 is 7.91. The value for `Cc1cccc(C[C@@H]2NC(=O)[C@H](CC(=O)O)NC(=O)[C@H](Cc3ccc(OCC(=O)O)cc3)NC(=O)[C@H](CCNC(=O)C(C)(C)C)NC(=O)CSC[C@@H](C(=O)N[C@@H](CCN)C(=O)NCCCCCCCCCCC(=O)O)NC(=O)[C@H](C(C)O)NC(=O)[C@H](C(C)C)NC(=O)[C@H](CC3CCCCC3)NC(=O)[C@H](CCN)NC(=O)[C@@H](CC(C)C)NC(=O)[C@H](CCCN)NC(=O)[C@H](CCCNC(N)=O)NC(=O)[C@H](Cc3ccc(-c4ccccc4)cc3)NC(=O)[C@H](C(C)C)NC2=O)c1` (stereo partly drawn) [Compound 3511] ({CH2CO}-[Dab](Piv)Y(Carboxymethyl)D[Phe(3-Me)]V[Bip][Cit][Orn][dL][Dab][Cha]V[Thr(3ξ)]C[Dab][Aun]-OH; thioether N-14) was 7.66; that for `CC(C)C[C@@H]1NC(=O)[C@H](Cc2c[nH]c3ccccc23)NC(=O)[C@H](CC(=O)O)NC(=O)[C@H](Cc2ccc(OCC(=O)O)cc2)NC(=O)[C@H](C(C)O)NC(=O)CSC[C@@H](C(=O)N[C@@H](CCN)C(=O)NCCCCCCCCCCC(=O)O)NC(=O)[C@H](CCCN)NC(=O)[C@H](C(C)O)NC(=O)[C@H](CC2CCCCC2)NC(=O)[C@H](CCN)NC(=O)[C@@H](CC(C)C)NC(=O)[C@H](CCCN)NC(=O)[C@H](C(C)C)NC(=O)[C@H](Cc2ccc(-c3ccccc3)cc2)NC1=O` (stereo partly drawn) [Compound 3686] ({CH2CO}-[Thr(3ξ)]Y(Carboxymethyl)DWL[Bip]V[Orn][dL][Dab][Cha][Thr(3ξ)][Orn]C[Dab][Aun]-OH; thioether N-14) was 7.56. The value for `CC(C)C[C@H]1NC(=O)[C@H](CCCN)NC(=O)[C@H](C(C)C)NC(=O)[C@H](Cc2ccc(-c3ccccc3)cc2)NC(=O)[C@H](C(C)C)NC(=O)[C@H](Cc2c[nH]c3ccccc23)NC(=O)[C@H](CC(=O)O)NC(=O)[C@H](Cc2ccc(OCC(=O)O)cc2)NC(=O)[C@H](C(C)O)NC(=O)CSC[C@@H](C(=O)N[C@@H](CC(N)=O)C(=O)NCCOCCOCC(=O)N[C@@H](CCCCN)C(=O)NCCCCCCCCCCC(=O)O)NC(=O)[C@H](C(C)O)NC(=O)[C@H](C(C)C)NC(=O)[C@H](CC2CCCCC2)NC(=O)[C@H](CCN)NC1=O` (stereo partly drawn) [Compound 3027] ({CH2CO}-[Thr(3ξ)]Y(Carboxymethyl)DWV[Bip]V[Orn][dL][Dab][Cha]V[Thr(3ξ)]CN[AEEA]K[Aun]-OH; thioether N-14) was 8.02; that for `Cc1cccc(C[C@@H]2NC(=O)[C@H](CC(=O)O)NC(=O)[C@H](Cc3ccc(OCC(=O)O)cc3)NC(=O)[C@H](CN)NC(=O)CN[C@@H](C(=O)N[C@@H](CCN)C(=O)NCCCCCCCCCCC(=O)O)CNC(=O)[C@H]([C@@H](C)O)NC(=O)[C@H](C(C)C)NC(=O)[C@H](CC3CCCCC3)NC(=O)[C@H](CCN)NC(=O)[C@@H](CC(C)C)NC(=O)[C@H](CCCN)NC(=O)[C@H](CCCNC(N)=O)NC(=O)[C@H](Cc3ccc(-c4ccccc4)cc3)NC(=O)[C@H](C(C)C)NC2=O)c1` [Compound 2158] was 6.89.
